Assay results reported in patent US6737383B1, “Herbicidal oxadiazolidines” (priority 1999, dated 2004).

Tests used:
wheat = test: Test B pre/postemergence wheat; type: in vivo, Triticum aestivum
How it was run: (§1)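 Herbicidal effect was estimated by eye on a ten-point control scale after plants spent twelve to sixteen days in a greenhouse following soil or foliar treatment. Foliar sprays targeted plants at one to four leaves; all doses were formulated in a non-phytotoxic solvent with surfactant.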

crabgrass = test: Test B pre/postemergence crabgrass; type: in vivo, Digitaria sanguinalis
How it was run: as §1

velvetleaf = test: Test B pre/postemergence velvetleaf; type: in vivo, Abutilon theophrasti
How it was run: as §1

blackgrass = test: Test B pre/postemergence blackgrass; type: in vivo, Alopecurus myosuroides
How it was run: as §1

morningglory = test: Test B pre/postemergence morningglory; type: in vivo, Ipomoea hederacea
How it was run: as §1

pigweed = test: Test B pre/postemergence pigweed; type: in vivo, Amaranthus retroflexus
How it was run: as §1

soybean = test: Test B pre/postemergence soybean; type: in vivo, Glycine max
How it was run: as §1

sugar beet = test: Test B pre/postemergence sugar beet; type: in vivo, Beta vulgaris
How it was run: as §1

purple nutsedge = test: Test B pre/postemergence purple nutsedge; type: in vivo, Cyperus rotundus
How it was run: as §1

rape = test: Test B pre/postemergence rape; type: in vivo, Brassica napus
How it was run: as §1

corn = test: Test B pre/postemergence corn; type: in vivo, Zea mays
How it was run: as §1

cocklebur = test: Test B pre/postemergence cocklebur; type: in vivo, Xanthium strumarium
How it was run: as §1

wild oat = test: Test B pre/postemergence wild oat; type: in vivo, Avena fatua
How it was run: as §1

bedstraw = test: Test B pre/postemergence bedstraw; type: in vivo, Galium aparine
How it was run: as §1

surinam grass = test: Test B pre/postemergence surinam grass; type: in vivo, Brachiaria decumbens
How it was run: as §1

giant foxtail = test: Test B pre/postemergence giant foxtail; type: in vivo, Setaria faberii
How it was run: as §1

[1] = Postemergence, Rate 62 g/ha, scale 0 to 10, 0 is no effect, 10 is complete control
[2] = Postemergence, Rate 125 g/ha, scale of 0 to 10 where 0 is no effect and 10 is complete control
[3] = Preemergence, Rate 62 g/ha, scale of 0 to 10 where 0 is no effect and 10 is complete control
[4] = Preemergence, Rate 125 g/ha, scale of 0 to 10 where 0 is no effect and 10 is complete control
[5] = Preemergence, Rate 250 g/ha, scale 0 to 10 (0 no effect, 10 complete control)
[6] = Preemergence, Rate 500 g/ha, scale of 0 to 10 where 0 is no effect and 10 is complete control
[7] = Postemergence, Rate 250 g/ha, scale of 0 to 10, 0 is no effect, 10 is complete control
[8] = Postemergence, Rate 500 g/ha, scale of 0 to 10 where 0 is no effect and 10 is complete control

C=C(Cn1c(=O)on(C(=O)N(c2ccccc2)C(C)C)c1=O)C(C)(C)C [Compound 648]
0: Plant response rating, Wheat (wheat; [1]) | Wheat plant response rating (wheat; [2]) | Wheat plant response rating (wheat; [3]) | Wheat plant response rating (wheat; [4]) | Plant response rating, Wheat (wheat; [5]) | Plant response rating, Wheat (wheat; [6]) | Plant response rating, Crabgrass (crabgrass; [1]) | Crabgrass plant response rating (crabgrass; [2]) | Crabgrass plant response rating (crabgrass; [7]) | Crabgrass plant response rating (crabgrass; [3]) | Plant response rating, Velvetleaf (velvetleaf; [1]) | Velvetleaf plant response rating (velvetleaf; [2]) | Velvetleaf plant response rating (velvetleaf; [3]) | Velvetleaf plant response rating (velvetleaf; [4]) | Plant response rating, Velvetleaf (velvetleaf; [5]) | Plant response rating, Velvetleaf (velvetleaf; [6]) | Plant response rating, Blackgrass (blackgrass; [1]) | Blackgrass plant response rating (blackgrass; [2]) | Blackgrass plant response rating (blackgrass; [7]) | Plant response rating, Blackgrass (blackgrass; [8]) | Blackgrass plant response rating (blackgrass; [3]) | Blackgrass plant response rating (blackgrass; [4]) | Morningglory plant response rating (morningglory; [3]) | Morningglory plant response rating (morningglory; [4]) | Plant response rating, Morningglory (morningglory; [5]) | Plant response rating, Morningglory (morningglory; [6]) | Plant response rating, Redroot pigweed (pigweed; [1]) | Redroot pigweed plant response rating (pigweed; [3]) | Redroot pigweed plant response rating (pigweed; [4]) | Plant response rating, Redroot pigweed (pigweed; [5]) | Plant response rating, Soybean (soybean; [1]) | Soybean plant response rating (soybean; [3]) | Soybean plant response rating (soybean; [4]) | Plant response rating, Soybean (soybean; [5]) | Plant response rating, Soybean (soybean; [6]) | Plant response rating, Sugarbeets (sugar beet; [1]) | Sugarbeets plant response rating (sugar beet; [2]) | Sugarbeets plant response rating (sugar beet; [3]) | Sugarbeets plant response rating (sugar beet; [4]) | Plant response rating, Sugarbeets (sugar beet; [5]) | Plant response rating, Sugarbeets (sugar beet; [6]) | Plant response rating, Nutsedge (purple nutsedge; [1]) | Nutsedge plant response rating (purple nutsedge; [2]) | Plant response rating, Nutsedge (purple nutsedge; [8]) | Nutsedge plant response rating (purple nutsedge; [3]) | Nutsedge plant response rating (purple nutsedge; [4]) | Plant response rating, Nutsedge (purple nutsedge; [5]) | Plant response rating, Nutsedge (purple nutsedge; [6]) | Plant response rating, Rape (rape; [1]) | Rape plant response rating (rape; [2]) | Rape plant response rating (rape; [3]) | Rape plant response rating (rape; [4]) | Plant response rating, Rape (rape; [5]) | Plant response rating, Rape (rape; [6]) | Plant response rating, Corn (corn; [1]) | Corn plant response rating (corn; [2]) | Corn plant response rating (corn; [7]) | Plant response rating, Corn (corn; [8]) | Corn plant response rating (corn; [3]) | Corn plant response rating (corn; [4]) | Plant response rating, Corn (corn; [5]) | Plant response rating, Corn (corn; [6]) | Plant response rating, Cocklebur (cocklebur; [1]) | Cocklebur plant response rating (cocklebur; [2]) | Cocklebur plant response rating (cocklebur; [7]) | Cocklebur plant response rating (cocklebur; [3]) | Cocklebur plant response rating (cocklebur; [4]) | Plant response rating, Cocklebur (cocklebur; [6]) | Plant response rating, Wild oats (wild oat; [1]) | Wild oats plant response rating (wild oat; [2]) | Wild oats plant response rating (wild oat; [3]) | Wild oats plant response rating (wild oat; [4]) | Plant response rating, Wild oats (wild oat; [5]) | Plant response rating, Wild oats (wild oat; [6]) | Bedstraw plant response rating (bedstraw; [2]) | Bedstraw plant response rating (bedstraw; [3]) | Bedstraw plant response rating (bedstraw; [4]) | Plant response rating, Bedstraw (bedstraw; [5]) | Plant response rating, Bedstraw (bedstraw; [6]) | Plant response rating, B. signalgrass (surinam grass; [1]) | Plant response rating, B. signalgrass (surinam grass; [2]) | B. signalgrass plant response rating (surinam grass; [7]) | Plant response rating, B. signalgrass (surinam grass; [8]) | B. signalgrass plant response rating (surinam grass; [3]) | B. signalgrass plant response rating (surinam grass; [4]) | Plant response rating, B. signalgrass (surinam grass; [5]) | Plant response rating, Giant foxtail (giant foxtail; [1]) | Giant foxtail plant response rating (giant foxtail; [2]) | Giant foxtail plant response rating (giant foxtail; [7])
8: Crabgrass plant response rating (crabgrass; [4])
2: Plant response rating, Blackgrass (blackgrass; [5]) | Plant response rating, Redroot pigweed (pigweed; [6]) | Soybean plant response rating (soybean; [2]) | Plant response rating, Rape (rape; [8]) | Plant response rating, Cocklebur (cocklebur; [8])
7: Plant response rating, Crabgrass (crabgrass; [8])
9: Plant response rating, Crabgrass (crabgrass; [5]) | Plant response rating, Crabgrass (crabgrass; [6]) | Giant foxtail plant response rating (giant foxtail; [4]) | Plant response rating, Giant foxtail (giant foxtail; [5]) | Plant response rating, Giant foxtail (giant foxtail; [6])
5: Plant response rating, Blackgrass (blackgrass; [6]) | Plant response rating, B. signalgrass (surinam grass; [6]) | Giant foxtail plant response rating (giant foxtail; [3])
10: Morningglory plant response rating (morningglory; [2]) | Morningglory plant response rating (morningglory; [7]) | Plant response rating, Morningglory (morningglory; [8])
6: Plant response rating, Morningglory (morningglory; [1])
3: Redroot pigweed plant response rating (pigweed; [2]) | Plant response rating, Giant foxtail (giant foxtail; [8])

CCn1ncc(Cn2c(=O)on(C(=O)N(c3ccc(Cl)cc3)C(C)C)c2=O)c1Cl [Compound 684]
3: Crabgrass plant response rating (crabgrass; [3]) | Plant response rating, Blackgrass (blackgrass; [4])
9: Plant response rating, Crabgrass (crabgrass; [5]) | Plant response rating, Giant foxtail (giant foxtail; [4])
4: Plant response rating, Blackgrass (blackgrass; [5]) | Plant response rating, B. signalgrass (surinam grass; [5])
5: Plant response rating, B. signalgrass (surinam grass; [6])
7: Plant response rating, Crabgrass (crabgrass; [4]) | Plant response rating, Blackgrass (blackgrass; [6]) | Giant foxtail plant response rating (giant foxtail; [3])
0: Wheat plant response rating (wheat; [3]) | Plant response rating, Wheat (wheat; [4]) | Velvetleaf plant response rating (velvetleaf; [3]) | Plant response rating, Velvetleaf (velvetleaf; [4]) | Morningglory plant response rating (morningglory; [3]) | Plant response rating, Morningglory (morningglory; [4]) | Redroot pigweed plant response rating (pigweed; [3]) | Plant response rating, Redroot pigweed (pigweed; [4]) | Soybean plant response rating (soybean; [3]) | Plant response rating, Soybean (soybean; [4]) | Sugarbeets plant response rating (sugar beet; [3]) | Plant response rating, Sugarbeets (sugar beet; [4]) | Nutsedge plant response rating (purple nutsedge; [3]) | Plant response rating, Nutsedge (purple nutsedge; [4]) | Rape plant response rating (rape; [3]) | Plant response rating, Rape (rape; [4]) | Corn plant response rating (corn; [3]) | Plant response rating, Corn (corn; [4]) | Plant response rating, Corn (corn; [5]) | Cocklebur plant response rating (cocklebur; [3]) | Plant response rating, Cocklebur (cocklebur; [4]) | Plant response rating, Cocklebur (cocklebur; [5]) | Plant response rating, Cocklebur (cocklebur; [6]) | Wild oats plant response rating (wild oat; [3]) | Plant response rating, Wild oats (wild oat; [4]) | Bedstraw plant response rating (bedstraw; [3]) | Plant response rating, Bedstraw (bedstraw; [4]) | Plant response rating, Bedstraw (bedstraw; [5]) | Plant response rating, Bedstraw (bedstraw; [6]) | B. signalgrass plant response rating (surinam grass; [3]) | Plant response rating, B. signalgrass (surinam grass; [4])
1: Blackgrass plant response rating (blackgrass; [3])
